Experimental data taken from PubChem BioAssay (NCI).
Where “and” joins values, the source holds several entries; their conditions need not be identical. Identical values can stand only once.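 Each compound was tested at five concentrations against cells in 96-well plates for 48 hours. GI50: concentration for 50% inhibition of growth. Definition used: TGI = concentration required for complete inhibition of growth.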

How the values were obtained:
Assay in all cases: NCI tumour cell line growth inhibition, 48 h
LOX IMVI melanoma = tested on: LOX IMVI melanoma
SNB-75 CNS = tested on: SNB-75 CNS
SW-620 colon = tested on: SW-620 colon
SK-OV-3 ovarian = tested on: SK-OV-3 ovarian
PC-3 prostate = tested on: PC-3 prostate
HS 578T breast = tested on: HS 578T breast
HCT-116 colon = tested on: HCT-116 colon
OVCAR-8 ovarian = tested on: OVCAR-8 ovarian
SK-MEL-5 melanoma = tested on: SK-MEL-5 melanoma
SR leukemia = tested on: SR leukemia

Cc1cccc2c1NC(=O)[C@@]21[C@H](C(=O)c2ccccc2)[C@]2(C(=O)Nc3ccccc32)[C@H]2CCCN21
GI50 (LOX IMVI melanoma): 34.5 µM | TGI (LOX IMVI melanoma): > 100 µM | GI50 (SNB-75 CNS): 15 µM | TGI (SNB-75 CNS): 63.4 µM | GI50 (SW-620 colon): 21.6 µM | TGI (SW-620 colon): > 100 µM | GI50 (SK-OV-3 ovarian): 43.3 µM | TGI (SK-OV-3 ovarian): > 100 µM | GI50 (PC-3 prostate): 36.4 µM | TGI (PC-3 prostate): > 100 µM | GI50 (HS 578T breast): 19.5 µM | TGI (HS 578T breast): > 100 µM | GI50 (HCT-116 colon): 15.2 µM | TGI (HCT-116 colon): 46.5 µM | GI50 (OVCAR-8 ovarian): 25.2 µM | TGI (OVCAR-8 ovarian): 92.3 µM | GI50 (SK-MEL-5 melanoma): 84.7 µM | TGI (SK-MEL-5 melanoma): > 100 µM | GI50 (SR leukemia): 15.4 µM | TGI (SR leukemia): > 100 µM

O=c1ccccc(-c2ccc(-c3ccco3)cc2)c1O
GI50 (LOX IMVI melanoma): 0.472 µM | TGI (LOX IMVI melanoma): 11.2 µM | GI50 (SNB-75 CNS): 0.994 µM | TGI (SNB-75 CNS): > 100 µM | GI50 (SW-620 colon): 0.438 µM | TGI (SW-620 colon): 29.1 µM | GI50 (SK-OV-3 ovarian): 1.22 µM | TGI (SK-OV-3 ovarian): 24 µM | GI50 (PC-3 prostate): 1.46 µM | TGI (PC-3 prostate): 31.8 µM | GI50 (HS 578T breast): 4.94 µM | TGI (HS 578T breast): 76.9 µM | GI50 (HCT-116 colon): 0.582 µM | TGI (HCT-116 colon): 15.8 µM | GI50 (OVCAR-8 ovarian): 0.507 µM | TGI (OVCAR-8 ovarian): 29 µM | GI50 (SK-MEL-5 melanoma): 0.935 µM | TGI (SK-MEL-5 melanoma): 8.44 µM | GI50 (SR leukemia): 0.581 µM | TGI (SR leukemia): 19.8 µM

O=C1CCC2=C3C4CCCCC4C(=O)C4CCCC(OC2C1)C34 (centres undefined)
GI50 (LOX IMVI melanoma): 0.278 µM | GI50 (SNB-75 CNS): 5.23 µM | TGI (SNB-75 CNS): > 43.8 µM | GI50 (SW-620 colon): 0.394 µM | TGI (SW-620 colon): 3.13 µM | GI50 (SK-OV-3 ovarian): 5.18 µM | TGI (SK-OV-3 ovarian): > 100 µM | GI50 (PC-3 prostate): 2.57 µM | TGI (PC-3 prostate): > 29.6 µM | GI50 (HS 578T breast): 1.96 µM | TGI (HS 578T breast): 6.88 µM | GI50 (HCT-116 colon): 0.316 µM | TGI (HCT-116 colon): > 31.1 µM | GI50 (OVCAR-8 ovarian): 0.397 µM | TGI (OVCAR-8 ovarian): 23.7 µM | GI50 (SK-MEL-5 melanoma): 0.729 µM | TGI (SK-MEL-5 melanoma): 2.35 µM | GI50 (SR leukemia): 0.307 µM | TGI (SR leukemia): 54.8 µM

COc1cc2c(Nc3ccc(Br)cc3F)ncnc2cc1OCC1CCN(C)CC1
GI50 (LOX IMVI melanoma): 2.37 µM and 3.39 µM | TGI (LOX IMVI melanoma): 8.83 µM and > 10 µM | GI50 (SNB-75 CNS): 0.737 µM and 1.13 µM | TGI (SNB-75 CNS): 5.79 µM and > 10 µM | GI50 (SW-620 colon): 4.69 µM and > 10 µM | TGI (SW-620 colon): 15.7 µM and > 10 µM | GI50 (SK-OV-3 ovarian): 1.2 µM and 1.67 µM | TGI (SK-OV-3 ovarian): 7.06 µM and > 10 µM | GI50 (PC-3 prostate): 4.06 µM and 3.9 µM | TGI (PC-3 prostate): 18.6 µM and > 10 µM | GI50 (HS 578T breast): 2.26 µM and 2.48 µM | TGI (HS 578T breast): 8.6 µM and > 10 µM | GI50 (HCT-116 colon): 3.8 µM and 4.32 µM | TGI (HCT-116 colon): 15.1 µM and > 10 µM | GI50 (OVCAR-8 ovarian): 5 µM and 7.4 µM | TGI (OVCAR-8 ovarian): 18 µM and > 10 µM | GI50 (SK-MEL-5 melanoma): 4.38 µM and 5.5 µM | TGI (SK-MEL-5 melanoma): 8.94 µM and > 10 µM | GI50 (SR leukemia): 2.55 µM and 2.89 µM | TGI (SR leukemia): 8.29 µM and > 10 µM

Cc1ccc2c(N/N=C\c3ccco3)cc(C)nc2n1
GI50 (LOX IMVI melanoma): 3.76 µM | TGI (LOX IMVI melanoma): 14 µM | GI50 (SNB-75 CNS): 11.4 µM | TGI (SNB-75 CNS): 26.4 µM | GI50 (SW-620 colon): 3.01 µM | TGI (SW-620 colon): 11.6 µM | GI50 (SK-OV-3 ovarian): 8.74 µM | TGI (SK-OV-3 ovarian): 22.7 µM | GI50 (PC-3 prostate): 6.26 µM | TGI (PC-3 prostate): 22.5 µM | GI50 (HS 578T breast): 5.83 µM | TGI (HS 578T breast): 29.6 µM | GI50 (HCT-116 colon): 2.95 µM | TGI (HCT-116 colon): 11 µM | GI50 (OVCAR-8 ovarian): 5.7 µM | TGI (OVCAR-8 ovarian): 24 µM | GI50 (SK-MEL-5 melanoma): 10.1 µM | TGI (SK-MEL-5 melanoma): 22.3 µM | GI50 (SR leukemia): 2.15 µM | TGI (SR leukemia): 6.07 µM

COc1c(B(O)O)cccc1-c1nc2c(F)cc3[nH]ncc3c2c2c1CCCC2
GI50 (LOX IMVI melanoma): 0.865 µM | TGI (LOX IMVI melanoma): 5.62 µM | GI50 (SNB-75 CNS): 0.0246 µM | TGI (SNB-75 CNS): 0.498 µM | GI50 (SW-620 colon): 0.604 µM | TGI (SW-620 colon): 14.4 µM | GI50 (SK-OV-3 ovarian): 1.5 µM | TGI (SK-OV-3 ovarian): 36.1 µM | GI50 (PC-3 prostate): 1.73 µM | TGI (PC-3 prostate): > 29 µM | GI50 (HS 578T breast): 0.0716 µM | TGI (HS 578T breast): 20.8 µM | GI50 (HCT-116 colon): 0.422 µM | TGI (HCT-116 colon): > 53.6 µM | GI50 (OVCAR-8 ovarian): 2.03 µM | TGI (OVCAR-8 ovarian): > 100 µM | GI50 (SK-MEL-5 melanoma): 3.08 µM | TGI (SK-MEL-5 melanoma): 11.5 µM | GI50 (SR leukemia): 2.13 µM | TGI (SR leukemia): > 88.5 µM
